Data reported in US7390870B2, “Immune-enhancing peptides” (Posco, priority 2001, dated 2008).

How the values were obtained:
monocytes [1] = assay: Effect of enzyme inhibitors on peptide-induced monocyte chemotaxis; format: cell-based, human; details: FIG. 10; for inhibition of MFYLPM-induced chemotaxis: 1 μM MFYLPM
Method: (§1) Chemotaxis assays of the peptide were performed using multiwell chambers (Neuroprobe Inc., Gaithersburg, Md.) (20). Briefly, the prepared isolated human monocytes were suspended in RPMI at a concentration of 1×10^6 cells/ml of serum-free RPMI, and 25 □ of the suspension were placed onto the upper well of a 96-well chemotaxis chamber that was separated by a […] filter with a 5 □ pore size (3 □ diameter pores not coated with polyvinylpyrrolidone for neutrophils) from peptides or an fMLF-containing lower well. After incubation for 2 hours (90 minutes for neutrophils) at 37° C., non-migrated cells were removed by scraping them out, and cells that migrated across the filter were dehydrated, fixed, and stained with hematoxylin (Sigma, St. Louis, Mo.). The stained cells in five randomly chosen high power fields (HPF) (400×) in that well were then counted (21). The numbers of migrated cells were determined by counting them in a high power field (400×). For a checkboard analysis, cells were re-suspended in RPMI containing various concentrations of the peptide just before transferring them to the upper wells as described before (22).
Monocytes were pretreated either with LY (LY294002, 50 μM), GFX (GF109203X, 5 μM), or PD (PD98059, 50 μM), or they remained untreated for the control After an incubation of the indicated periods (15 minutes for LY294002 and GF109203X, 60 minutes for PD98059), the cells were washed twice and used for chemotaxis assay. 25 □ of monocytes at 1×10^6 cells/ml were added to the upper wells and allowed to migrate for 2 hrs at 37° C. (humidified atmosphere; 5% CO2) toward each peptide (1 μM HFYLPM, 1 μM MFYLPM, or 10 nM HFYLPm) or medium. After fixing and staining of the membrane, the numbers of migrated cells were determined by counting them in a high power field (400×). The results are shown FIG. 10. The data are presented as means ±S.E. of three independent experiments each performed in duplicate. *P<0.01 versus medium treatment and †P<0.01 versus peptide treatment, respectively.

monocytes [2] = assay: Effect of PTX on peptide-induced chemotactic migration in monocytes; format: cell-based, human; details: FIG. 8, PTX preincubation 90 minutes
Method: as §1
Several extracellular signals including many chemoattractants activate phagocytic cells via pertussis toxin (PTX)-sensitive G-protein(s) (27-29). Therefore, the involvement of PTX-sensitive G-protein(s) on the peptide-induced monocyte activation was examined. Monocytes were preincubated with PTX (1 □/ml) or vehicle only for 90 minutes at 37° C. The cells were used for chemotaxis assay with HFYLPM (1 μM), MFYLPM (1 μM), HFYLPm (100 nM), and fMLF (100 nM). The numbers of migrated cells were determined by counting them in a high power field (400×). The results are illustrated in FIG. 8. The data of FIG. 8 are presented as means±S.E. of two independent experiments each performed in duplicate. *P<0.01 versus medium treatment and †P<0.01 versus peptide treatment, respectively.

[3] = LY294002 50 μM, GF109203X 5 μM, PD98059 50 μM, 10 nM HFYLPm
[4] = LY294002 50 μM, GF109203X 5 μM, PD98059 50 μM

Row | inhibition of HFYLPm-induced chemotaxis (monocytes [1]; PD98059 50 μM, 60 minutes pretreatment, 1 μM HFYLPM) | Molecule | inhibition of HFYLPm-induced chemotaxis (monocytes [1]; LY294002 50 μM, GF109203X 5 μM, 15 minutes pretreatment, 1 μM HFYLPM) [%] | inhibition of HFYLPm-induced chemotaxis (monocytes [1]; [3]) | inhibition of MFYLPM-induced chemotaxis (monocytes [1]; [4]) | inhibition at 50 µM (monocytes [1]; Homo sapiens, Monocyte, LY294002 50 μM, GF109203X 5 μM, 15 minutes pretreatment, 1 μM HFYLPM) [%] | inhibition of HFYLPm-induced monocyte chemotaxis (monocytes [2]; HFYLPM 1 μM) | inhibition of HFYLPm-induced monocyte chemotaxis (monocytes [2]; HFYLPm 100 nM) | inhibition of MFYLPM-induced monocyte chemotaxis (monocytes [2]; MFYLPM 1 μM) | inhibition of fMLF-induced monocyte chemotaxis (monocytes [2]; fMLF 100 nM)
1 | – | CN(C)CCCn1cc(C2=C(c3c[nH]c4ccccc34)C(=O)NC2=O)c2ccccc21 [GF109203X] | ~50 | no effect | no effect | – | – | – | – | –
2 | – | O=c1cc(N2CCOCC2)oc2c(-c3ccccc3)cccc12 [LY294002] | – | no effect | no effect | ~75 | – | – | – | –
3 | almost complete inhibition | COc1cccc(-c2cc(=O)c3ccccc3o2)c1N [PD98059] | – | almost complete inhibition | almost complete inhibition | – | – | – | – | –
4 | – | pertussis toxin [PTX] | – | – | – | – | complete inhibition | complete inhibition | complete inhibition | completely blocked
